Data: US9067966B2, “Lupeol-type triterpene derivatives as antivirals” (priority 2009, dated 2015)
Like-named read-outs stand apart in the source and are kept apart here.

System: HIV-1 strain 92-HT599
Assay: Anti HIV-1 p24 assay, strain 92-HT599 in MT2 cells
Type: cell-based
Settings: for IC50: MT2 cells infected with HIV-1 92-HT599, p24, 96 hours
Procedure: MT2 cells were infected with the HIV-1 strain 92-HT599 (10TCID50/30000 cells). The infected cells are plated at the concentration of 30000 cells per well in a 96 well assay micro plate. A test compound was added to the micro plate in a defined format with the final concentration of DMSO (vehicle) being not more than 1%. Incubation was carried out in a CO2 incubator for 96 hours for viral infection. At the end of incubation period an aliquot from each well was taken for p24 estimation. The quantitation of p24 is an index for antiviral activity of the compound. Percent inhibition was calculated with reference to control values (vehicle).
P24 estimation was carried out using an Advance Biosciences kit as per the procedure as detailed by supplier.
[…] was made by dissolving test compound in DMSO. Subsequent dilutions were made with DMSO to make necessary working stocks (100×).

[1] = Human immunodeficiency virus 1, MT2 cells, HIV-1 92-HT599, p24, concentration 0.1 μM, read-out: Percent inhibition
[2] = Human immunodeficiency virus 1, MT2 cells, HIV-1 92-HT599, p24, concentration 1 μM, read-out: Percent inhibition
[3] = Human immunodeficiency virus 1, MT2, read-out: Percent inhibition

Compound | IC50 (Human immunodeficiency virus 1) [nM] | inhibition at 0.1 µM [1] [%] | inhibition at 1 µM [2] [%] | also measured
C=C(C)[C@@H]1CC[C@]2(C(=O)N[C@H]3C[C@@H](C(=O)N4CCOCC4)C3(C)C)CC[C@]3(C)[C@H](CC[C@@H]4[C@@]5(C)CC[C@H](OC(=O)[C@@H]6C[C@H](C(=O)O)C6(C)C)C(C)(C)[C@@H]5CC[C@]43C)[C@@H]12 [Example 61, (1S,3R)-3-(((1R,3aS,5aR,5bR,7aR,9S,11aR,11bR,13aR,13bR)-3a-((1S,3R)-2,2-dimethyl-3-(morpholine-4-carbonyl)cyclobutylcarbamoyl)-5a,5b,8,8,11a-pentamethyl-1-(prop-1-en-2-yl)icosahydro-1H-cyclopenta[a]chrysen-9-yloxy)carbonyl)-2,2-dimethylcyclobutanecarboxylic acid] | 7 | – | – | –
C=C(C)[C@@H]1CC[C@]2(C(=O)NC3CC(C(=O)NCCC(=O)N4CCOCC4)C3(C)C)CC[C@]3(C)[C@H](CC[C@@H]4[C@@]5(C)CC[C@H](O)C(C)(C)[C@@H]5CC[C@]43C)[C@@H]12 (stereo partly drawn) [Example 97, (1R,3aS,5aR,5bR,7aR,9S,11aR,11bR,13aR,13bR)-N-(2,2-dimethyl-3-(3-morpholino-3-oxopropylcarbamoyl)cyclobutyl)-9-hydroxy-5a,5b,8,8,11a-pentamethyl-1-(prop-1-en-2-yl)icosahydro-1H-cyclopenta[a]chrysene-3a-carboxamide] | – | 37 | 67 | –
C=C(C)[C@@H]1CC[C@]2(C(=O)N[C@@H]3C[C@H](C(=O)N4CCCC4)C3(C)C)CC[C@]3(C)[C@H](CC[C@@H]4[C@@]5(C)CC[C@H](O)C(C)(C)[C@@H]5CC[C@]43C)[C@@H]12 [Example 44, (1R,3aS,5aR,5bR,7aR,9S,11aR,11bR,13aR,13bR)-N-((1R,3S)-2,2-dimethyl-3-(pyrrolidine-1-carbonyl)cyclobutyl)-9-hydroxy-5a,5b,8,8,11a-pentamethyl-1-(prop-1-en-2-yl)icosahydro-1H-cyclopenta[a]chrysene-3a-carboxamide] | – | 15 | 43 | –
C=C(C)[C@@H]1CC[C@]2(C(=O)N[C@@H]3C=C[C@H](CN4CCOCC4)C3)CC[C@]3(C)[C@H](CC[C@@H]4[C@@]5(C)CC[C@H](O)C(C)(C)[C@@H]5CC[C@]43C)[C@@H]12 [Example 26, (1R,3aS,5aR,5bR,7aR,9S,11aR,11bR,13aR,13bR)-9-hydroxy-5a,5b,8,8,11a-pentamethyl-N-((1S,4R)-4-(morpholinomethyl)cyclopent-2-enyl)-1-(prop-1-en-2-yl)icosahydro-1H-cyclopenta[a]chrysene-3a-carboxamide] | – | – | – | inhibition at 0.1 µM [3]: 52%; inhibition at 1 µM [3]: 53%
C=C(C)[C@@H]1CC[C@]2(C(=O)NC3CC(C(=O)NCCC(=O)N4CCCC4)C3(C)C)CC[C@]3(C)[C@H](CC[C@@H]4[C@@]5(C)CC[C@H](O)C(C)(C)[C@@H]5CC[C@]43C)[C@@H]12 (stereo partly drawn) [Example 98, (1R,3aS,5aR,5bR,7aR,9S,11aR,11bR,13aR,13bR)-N-(2,2-dimethyl-3-(3-oxo-3-(pyrrolidin-1-yl)propylcarbamoyl)cyclobutyl)-9-hydroxy-5a,5b,8,8,11a-pentamethyl-1-(prop-1-en-2-yl)icosahydro-1H-cyclopenta[a]chrysene-3a-carboxamide] | – | 1 | 50 | –
C=C(C)[C@@H]1CC[C@]2(C(=O)N[C@@H]3C[C@H](C(=O)N4CCCCC4)C3(C)C)CC[C@]3(C)[C@H](CC[C@@H]4[C@@]5(C)CC[C@H](OC(=O)[C@@H]6C[C@H](C(=O)O)C6(C)C)C(C)(C)[C@@H]5CC[C@]43C)[C@@H]12 [Example 59, (1S,3R)-3-(((1R,3aS,5aR,5bR,7aR,9S,11aR,11bR,13aR,13bR)-3a-((1R,3S)-2,2-dimethyl-3-(piperidine-1-carbonyl)cyclobutylcarbamoyl)-5a,5b,8,8,11a-pentamethyl-1-(prop-1-en-2-yl)icosahydro-1H-cyclopenta[a]chrysen-9-yloxy)carbonyl)-2,2-dimethylcyclobutanecarboxylic acid] | 6 | – | – | –
C=C(C)[C@@H]1CC[C@]2(C(=O)N[C@@H]3CC[C@H](CN4CCC(Cc5ccccc5)CC4)C3)CC[C@]3(C)[C@H](CC[C@@H]4[C@@]5(C)CC[C@H](OC(=O)CC(C)(C)C(=O)O)C(C)(C)[C@@H]5CC[C@]43C)[C@@H]12 [Example 99, 4-((1R,3aS,5aR,5bR,7aR,9S,11aR,11bR,13aR,13bR)-3a-((1R,3S)-3-((4-benzylpiperidin-1-yl)methyl)cyclopentylcarbamoyl)-5a,5b,8,8,11a-pentamethyl-1-(prop-1-en-2-yl)icosahydro-1H-cyclopenta[a]chrysen-9-yloxy)-2,2-dimethyl-4-oxobutanoic acid] | – | 89 | 97 | –
C=C(C)[C@@H]1CC[C@]2(C(=O)N[C@@H]3C[C@H](C(=O)N[C@H](C(=O)O)C(C)C)C3(C)C)CC[C@]3(C)[C@H](CC[C@@H]4[C@@]5(C)CC[C@H](O)C(C)(C)[C@@H]5CC[C@]43C)[C@@H]12 [Example 40, (S)-2-((1S,3R)-3-((1R,3aS,5aR,5bR,7aR,9S,11aR,11bR,13aR,13bR)-9-hydroxy-5a,5b,8,8,11a-pentamethyl-1-(prop-1-en-2-yl)icosahydro-1H-cyclopenta[a]chrysene-3a-carboxamido)-2,2-dimethylcyclobutanecarboxamido)-3-methylbutanoic acid] | – | 13 | 42 | –
C=C(C)[C@@H]1CC[C@]2(C(=O)NC3CCC(CN4CCCCC4)C3)CC[C@]3(C)[C@H](CC[C@@H]4[C@@]5(C)CC[C@H](OC(=O)CCC(=O)O)C(C)(C)[C@@H]5CC[C@]43C)[C@@H]12 (stereo partly drawn) [Example 96, 4-oxo-4-((1R,3aS,5aR,5bR,7aR,9S,11aR,11bR,13aR,13bR)-5a,5b,8,8,11a-pentamethyl-3a-(3-(piperidin-1-ylmethyl)cyclopentylcarbamoyl)-1-(prop-1-en-2-yl)icosahydro-1H-cyclopenta[a]chrysen-9-yloxy)butanoic acid] | 0.1 | – | – | –
C=C(C)[C@@H]1CC[C@]2(C(=O)N[C@@H]3CC[C@H](CN4CCCC(C)C4)C3)CC[C@]3(C)[C@H](CC[C@@H]4[C@@]5(C)CC[C@H](OC(=O)CC(C)(C)C(=O)O)C(C)(C)[C@@H]5CC[C@]43C)[C@@H]12 (stereo partly drawn) [Example 51, 2,2-dimethyl-4-oxo-4-((1R,3aS,5aR,5bR,7aR,9S,11aR,11bR,13aR,13bR)-5a,5b,8,8,11a-pentamethyl-3a-((1R,3S)-3-((3-methylpiperidin-1-yl)methyl)cyclopentylcarbamoyl)-1-(prop-1-en-2-yl)icosahydro-1H-cyclopenta[a]chrysen-9-yloxy)butanoic acid] | 1 | – | – | –
C=C(C)[C@@H]1CC[C@]2(C(=O)N[C@H]3C[C@@H](C(=O)N4CCCC4)C3(C)C)CC[C@]3(C)[C@H](CC[C@@H]4[C@@]5(C)CC[C@H](O)C(C)(C)[C@@H]5CC[C@]43C)[C@@H]12 [Example 14, (1R,3aS,5aR,5bR,7aR,9S,11aR,11bR,13aR,13bR)-N-((1S,3R)-2,2-dimethyl-3-(pyrrolidine-1-carbonyl)cyclobutyl)-9-hydroxy-5a,5b,8,8,11a-pentamethyl-1-(prop-1-en-2-yl)icosahydro-1H-cyclopenta[a]chrysene-3a-carboxamide] | – | 71 | 32 | –
C=C(C)[C@@H]1CC[C@]2(C(=O)N[C@@H]3CC[C@H](CN4CCOCC4)C3)CC[C@]3(C)[C@H](CC[C@@H]4[C@@]5(C)CC[C@H](O)C(C)(C)[C@@H]5CC[C@]43C)[C@@H]12 [Example 23, (1R,3aS,5aR,5bR,7aR,9S,11aR,11bR,13aR,13bR)-9-hydroxy-5a,5b,8,8,11a-pentamethyl-N-((1R,3S)-3-(morpholinomethyl)cyclopentyl)-1-(prop-1-en-2-yl)icosahydro-1H-cyclopenta[a]chrysene-3a-carboxamide] | – | 11 | 37 | –
C=C(C)[C@@H]1CCC2(C(=O)N3C4CCC3CC(n3c(C)nnc3C(C)C)C4)CC[C@]3(C)[C@H](CC[C@@H]4[C@@]5(C)CC[C@H](O)C(C)(C)[C@@H]5CC[C@]43C)[C@@H]12 (stereo partly drawn) [Example 25, ((1R,5aR,5bR,7aR,9S,11aR,11bR,13aR,13bR)-9-hydroxy-5a,5b,8,8,11a-pentamethyl-1-(prop-1-en-2-yl)icosahydro-1H-cyclopenta[a]chrysen-3a-yl)(3-(3-isopropyl-5-methyl-4H-1,2,4-triazol-4-yl)-8-azabicyclo[3.2.1]octan-8-yl)methanone] | – | 33 | 25 | –
